Measured values reported in US11370798B2 (Vertex Pharmaceuticals Incorporated, priority 2012, dated 2022).
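Also: Test-compound concentration that lowers the Cisplatin IC50 by a set fold.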

These compounds were tested on HCT116 colorectal cancer cells (assay: Cisplatin sensitization assay (96 h cell viability MTS)). Conditions: compound and Cisplatin added simultaneously, Cisplatin sensitization value.
Format: cell-based
Method in brief: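 Viability read by MTS (1 h at 37° C) after 96 h co-exposure at 37° C, 5% CO2. Test compound and cisplatin were dosed simultaneously in a full concentration matrix, each 2-fold serially diluted from 10 μM final; sensitization values binned in μM.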
With `Nc1nn2cc(F)cnc2c1C(=O)Nc1cncc(F)c1N1CCC2(CC1)COC2` [I-N-239, 2-amino-6-fluoro-N-(5-fluoro-4-(2-oxa-7-azaspiro[3.5]nonan-7-yl)pyridin-3-yl)pyrazolo[1,5-a]pyrimidine-3-carboxamide] the “Cisplatin Sensitization Assay” value was “+++ (Cisplatin sensitization value of <0.02 μM)”. In the case of `Nc1nn2cc(Cl)cnc2c1C(=O)Nc1cnccc1N1CCNC(C(F)(F)F)C1` (centres unmarked) [I-N-70, 2-amino-6-chloro-N-(4-(3-(trifluoromethyl)piperazin-1-yl)pyridin-3-yl)pyrazolo[1,5-a]pyrimidine-3-carboxamide], the “Cisplatin Sensitization Assay” value is reported as “++ (Cisplatin sensitization value>0.02 μM but <0.2 μM)”. In the case of `N#CCc1cnc2c(C(=O)Nc3cnccc3OCC(F)(F)F)c(N)nn2c1` [I-O-34, 2-amino-6-(cyanomethyl)-N-(4-(2,2,2-trifluoroethoxy)pyridin-3-yl)pyrazolo[1,5-a]pyrimidine-3-carboxamide], the “Cisplatin Sensitization Assay” value is reported as “++ (Cisplatin sensitization value>0.02 μM but <0.2 μM)”. For `CN1CCC[C@@H]1COc1ccncc1NC(=O)c1c(N)nn2cc(Cl)cnc12` [I-O-49, (R)-2-amino-6-chloro-N-(4-((1-methylpyrrolidin-2-yl)methoxy)pyridin-3-yl)pyrazolo[1,5-a]pyrimidine-3-carboxamide], the “Cisplatin Sensitization Assay” value was “+ (Cisplatin sensitization value>0.2 μM but <5 μM)”. With `Nc1nn2cc(Cl)cnc2c1C(=O)Nc1cnccc1OC1CCCOC1` (centres unmarked) [I-O-65, 2-amino-6-chloro-N-(4-((tetrahydro-2H-pyran-3-yl)oxy)pyridin-3-yl)pyrazolo[1,5-a]pyrimidine-3-carboxamide] the “Cisplatin Sensitization Assay” value was “+++ (Cisplatin sensitization value of <0.02 μM)”. In the case of `N#CCc1cnc2c(C(=O)Nc3cnccc3OC3CCOC3)c(N)nn2c1` (racemic) [I-O-37, (R,S)-2-amino-6-(cyanomethyl)-N-(4-((tetrahydrofuran-3-yl)oxy)pyridin-3-yl)pyrazolo[1,5-a]pyrimidine-3-carboxamide], the “Cisplatin Sensitization Assay” value is reported as “+++ (Cisplatin sensitization value of <0.02 μM)”. For `CCN1CCN(C(=O)C2CCN(c3c(F)cncc3NC(=O)c3c(N)nn4cc(F)cnc34)CC2)CC1` [I-G-9, 2-amino-N-(4-(4-(4-ethylpiperazine-1-carbonyl)piperidin-1-yl)-5-fluoropyridin-3-yl)-6-fluoropyrazolo[1,5-a]pyrimidine-3-carboxamide], the “Cisplatin Sensitization Assay” value was “+++ (Cisplatin sensitization value of <0.02 μM)”. `N#CCc1cnc2c(C(=O)Nc3cnccc3OC3CCCNC3)c(N)nn2c1` (racemic) [I-O-2, (R,S)-2-amino-6-(cyanomethyl)-N-(4-(piperidin-3-yloxy)pyridin-3-yl)pyrazolo[1,5-a]pyrimidine-3-carboxamide] was tested, and the “Cisplatin Sensitization Assay” value was “++ (Cisplatin sensitization value>0.02 μM but <0.2 μM)”. In the case of `CN1CCN(C(=O)C2CCN(c3c(F)cncc3NC(=O)c3c(N)nn4cc(F)cnc34)C2)CC1` (centres unmarked) [I-N-191, 2-amino-6-fluoro-N-(5-fluoro-4-(3-(4-methylpiperazine-1-carbonyl)pyrrolidin-1-yl)pyridin-3-yl)pyrazolo[1,5-a]pyrimidine-3-carboxamide], the “Cisplatin Sensitization Assay” value is reported as “+ (Cisplatin sensitization value>0.2 μM but <5 μM)”. In the case of `CC1(O)CCN(c2ccncc2NC(=O)c2c(N)nn3cc(Cl)cnc23)CC1` [I-N-66, 2-amino-6-chloro-N-(4-(4-hydroxy-4-methylpiperidin-1-yl)pyridin-3-yl)pyrazolo[1,5-a]pyrimidine-3-carboxamide], the “Cisplatin Sensitization Assay” value is reported as “+++ (Cisplatin sensitization value of <0.02 μM)”. For `CN1CCC(Oc2ccncc2NC(=O)c2c(N)nn3cc(Cl)cnc23)CC1` [I-O-64, 2-amino-6-chloro-N-(4-((1-methylpiperidin-4-yl)oxy)pyridin-3-yl)pyrazolo[1,5-a]pyrimidine-3-carboxamide], the “Cisplatin Sensitization Assay” value was “+++ (Cisplatin sensitization value of <0.02 μM)”. With `CCN1CCN(c2ccncc2NC(=O)c2c(N)nn3cc(F)cnc23)CC1` [I-N-17, 2-amino-N-(4-(4-ethylpiperazin-1-yl)pyridin-3-yl)-6-fluoropyrazolo[1,5-a]pyrimidine-3-carboxamide] the “Cisplatin Sensitization Assay” value was “+++ (Cisplatin sensitization value of <0.02 μM)”. For `CN1CCN(c2c(F)cncc2NC(=O)c2c(N)nn3cc(C(C)(C)C#N)cnc23)CC1` [I-N-138, 2-amino-6-(2-cyanopropan-2-yl)-N-(5-fluoro-4-(4-methylpiperazin-1-yl)pyridin-3-yl)pyrazolo[1,5-a]pyrimidine-3-carboxamide], the “Cisplatin Sensitization Assay” value was “++ (Cisplatin sensitization value>0.02 μM but <0.2 μM)”. In the case of `CN1CCN2CCN(c3c(F)cncc3NC(=O)c3c(N)nn4cc(F)cnc34)CC2C1=O` (centres unmarked) [I-N-240, 2-amino-6-fluoro-N-(5-fluoro-4-(8-methyl-9-oxohexahydro-1H-pyrazino[1,2-a]pyrazin-2(6H)-yl)pyridin-3-yl)pyrazolo[1,5-a]pyrimidine-3-carboxamide], the “Cisplatin Sensitization Assay” value is reported as “++ (Cisplatin sensitization value>0.02 μM but <0.2 μM)”. `CC(C)N1CCN(c2ccncc2NC(=O)c2c(N)nn3cc(Cl)cnc23)CC1` [I-N-39, 2-amino-6-chloro-N-(4-(4-isopropylpiperazin-1-yl)pyridin-3-yl)pyrazolo[1,5-a]pyrimidine-3-carboxamide] was tested, and the “Cisplatin Sensitization Assay” value was “++ (Cisplatin sensitization value>0.02 μM but <0.2 μM)”. In the case of `CNCCCN(C)C(=O)C1CCN(c2c(F)cncc2NC(=O)c2c(N)nn3cc(F)cnc23)CC1` [I-G-17], the “Cisplatin Sensitization Assay” value is reported as “+ (Cisplatin sensitization value>0.2 μM but <5 μM)”. For `Nc1nn2cc(F)cnc2c1C(=O)Nc1cnccc1-n1cccn1` [I-N-26, N-(4-(1H-pyrazol-1-yl)pyridin-3-yl)-2-amino-6-fluoropyrazolo[1,5-a]pyrimidine-3-carboxamide], the “Cisplatin Sensitization Assay” value was “+ (Cisplatin sensitization value>0.2 μM but <5 μM)”. With `Nc1nn2cc(F)cnc2c1C(=O)Nc1cnccc1N1CCC(CN2CCC(F)(F)C2)CC1` [I-N-197, 2-amino-N-(4-(4-((3,3-difluoropyrrolidin-1-yl)methyl)piperidin-1-yl)pyridin-3-yl)-6-fluoropyrazolo[1,5-a]pyrimidine-3-carboxamide] the “Cisplatin Sensitization Assay” value was “+++ (Cisplatin sensitization value of <0.02 μM)”. With `Nc1nn2cc(F)cnc2c1C(=O)Nc1cncc(F)c1N1CCN2C(=O)CCC[C@H]2C1` [I-N-279, (S)-2-amino-6-fluoro-N-(5-fluoro-4-(6-oxohexahydro-1H-pyrido[1,2-a]pyrazin-2(6H)-yl)pyridin-3-yl)pyrazolo[1,5-a]pyrimidine-3-carboxamide] the “Cisplatin Sensitization Assay” value was “+++ (Cisplatin sensitization value of <0.02 μM)”. For `CN1CC(NC(=O)C2CCN(c3c(F)cncc3NC(=O)c3c(N)nn4cc(F)cnc34)CC2)C1` [I-G-23, 2-amino-6-fluoro-N-(5-fluoro-4-(4-((1-methylazetidin-3-yl)carbamoyl)piperidin-1-yl)pyridin-3-yl)pyrazolo[1,5-a]pyrimidine-3-carboxamide], the “Cisplatin Sensitization Assay” value was “+++ (Cisplatin sensitization value of <0.02 μM)”. With `CN1CC[C@H](Oc2ccncc2NC(=O)c2c(N)nn3cc(Cl)cnc23)C1` [I-O-69, (S)-2-amino-6-chloro-N-(4-((1-methylpyrrolidin-3-yl)oxy)pyridin-3-yl)pyrazolo[1,5-a]pyrimidine-3-carboxamide] the “Cisplatin Sensitization Assay” value was “++ (Cisplatin sensitization value>0.02 μM but <0.2 μM)”. `CN1CCN(c2cc(N)ncc2NC(=O)c2c(N)nn3cc(Cl)cnc23)CC1` [I-N-50, 2-amino-N-(6-amino-4-(4-methylpiperazin-1-yl)pyridin-3-yl)-6-chloropyrazolo[1,5-a]pyrimidine-3-carboxamide] was tested, and the “Cisplatin Sensitization Assay” value was “+ (Cisplatin sensitization value>0.2 μM but <5 μM)”. For `CN1CCC(c2ccncc2NC(=O)c2c(N)nn3cc(C(C)(C)C#N)cnc23)CC1` [I-C-23, 2-amino-6-(2-cyanopropan-2-yl)-N-(4-(1-methylpiperidin-4-yl)pyridin-3-yl)pyrazolo[1,5-a]pyrimidine-3-carboxamide], the “Cisplatin Sensitization Assay” value was “+ (Cisplatin sensitization value>0.2 μM but <5 μM)”. For `CN1CCN(c2ccc(-c3ccncc3NC(=O)c3c(N)nn4cc(F)cnc34)cn2)CC1` [I-C-21, 2-amino-6-fluoro-N-(6-(4-methylpiperazin-1-yl)-[3,4′-bipyridin]-3′-yl)pyrazolo[1,5-a]pyrimidine-3-carboxamide], the “Cisplatin Sensitization Assay” value was “+++ (Cisplatin sensitization value of <0.02 μM)”. With `CN1CCC[C@@H]1C(=O)N1CCN(c2c(F)cncc2NC(=O)c2c(N)nn3cc(F)cnc23)CC1` [I-N-181, (R)-2-amino-6-fluoro-N-(5-fluoro-4-(4-(1-methylpyrrolidine-2-carbonyl)piperazin-1-yl)pyridin-3-yl)pyrazolo[1,5-a]pyrimidine-3-carboxamide] the “Cisplatin Sensitization Assay” value was “+++ (Cisplatin sensitization value of <0.02 μM)”. For `Nc1nn2cc(F)cnc2c1C(=O)Nc1cncc(Cl)c1N1CCN2CCN(C3COC3)CC2C1` (centres unmarked) [I-N-38, 2-amino-N-(5-chloro-4-(8-(oxetan-3-yl)hexahydro-1H-pyrazino[1,2-a]pyrazin-2(6H)-yl)pyridin-3-yl)-6-fluoropyrazolo[1,5-a]pyrimidine-3-carboxamide], the “Cisplatin Sensitization Assay” value was “++ (Cisplatin sensitization value>0.02 μM but <0.2 μM)”. `Nc1nn2cc(Cl)cnc2c1C(=O)Nc1cnccc1N1CCN2CCC[C@H]2C1` [I-N-71, (S)-2-amino-6-chloro-N-(4-(hexahydropyrrolo[1,2-a]pyrazin-2(1H)-yl)pyridin-3-yl)pyrazolo[1,5-a]pyrimidine-3-carboxamide] was tested, and the “Cisplatin Sensitization Assay” value was “+++ (Cisplatin sensitization value of <0.02 μM)”. `CC1(O)CN(C(=O)C2CCN(c3c(F)cncc3NC(=O)c3c(N)nn4cc(F)cnc34)CC2)C1` [I-G-63, 2-amino-6-fluoro-N-(5-fluoro-4-(4-(3-hydroxy-3-methylazetidine-1-carbonyl)piperidin-1-yl)pyridin-3-yl)pyrazolo[1,5-a]pyrimidine-3-carboxamide] was tested, and the “Cisplatin Sensitization Assay” value was “+++ (Cisplatin sensitization value of <0.02 μM)”. For `CN(C)CC1(O)CCN(c2ccncc2NC(=O)c2c(N)nn3cc(Cl)cnc23)CC1` [I-N-36, 2-amino-6-chloro-N-(4-(4-((dimethylamino)methyl)-4-hydroxypiperidin-1-yl)pyridin-3-yl)pyrazolo[1,5-a]pyrimidine-3-carboxamide], the “Cisplatin Sensitization Assay” value was “++ (Cisplatin sensitization value>0.02 μM but <0.2 μM)”.
